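Five concentrations, 48 hours, 96-well plates. GI50 marks 50% less growth. TGI marks complete inhibition of growth.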
How the values were obtained:
Assay in all cases: NCI anticancer screen, dose series, 48 h
[1] = tested on: BT-549 breast
[2] = tested on: CAKI-1 renal
[3] = tested on: HCT-15 colon
[4] = tested on: HOP-62 NSCLC
[5] = tested on: MDA-MB-231 breast
[6] = tested on: OVCAR-5 ovarian
[7] = tested on: PC-3 prostate
[8] = tested on: SW-620 colon
[9] = tested on: TK-10 renal
[10] = tested on: UACC-62 melanoma

Row | Structure (SMILES) | TGI [1] | TGI [2] | TGI [3] | TGI [4] | TGI [5] | TGI [6] | TGI [7] | TGI [8] | TGI [9] | TGI [10] | GI50 [2] | GI50 [3] | GI50 [4] | GI50 [5] | GI50 [6] | GI50 [7] | GI50 [8] | GI50 [9] | GI50 [10]
1 | CC(C)(C)CC(C)(C)c1ccc(O)c(C[N+](C)(C)[O-])c1 | > 100 µM | > 100 µM | > 100 µM | > 100 µM | > 100 µM | > 100 µM | > 100 µM | > 100 µM | > 100 µM | > 100 µM |  |  |  |  |  |  |  |  | 
2 | O=C1CC2CCC(C1)S2=O (centres undefined) | > 100 µM | > 100 µM | > 100 µM | > 100 µM | > 100 µM |  | > 100 µM | > 100 µM | > 100 µM | > 100 µM |  |  |  |  |  |  |  |  | 
3 | NC1CC=C(COC(=O)C(O)(c2ccccc2)C2CC2)CC1 (centres undefined) |  | > 100 µM | > 100 µM | > 100 µM | > 100 µM | > 100 µM | > 100 µM | > 100 µM | > 100 µM | > 100 µM |  |  |  |  |  |  |  |  | 
4 | Cc1cc(S(=O)(=O)/N=C(/NN)NNc2cccc(C(F)(F)F)n2)c(S)cc1Cl | 36.7 µM | 57.1 µM | 38.2 µM | 86.4 µM | > 100 µM | 29.5 µM | 50.7 µM | 39.3 µM | 51.8 µM | 37 µM |  |  |  |  |  |  |  |  | 
5 | Cc1ccc(CCC(=O)C(=O)O)s1 |  | 90.3 µM | > 100 µM | > 100 µM |  | > 100 µM |  | > 100 µM | > 100 µM | 48.6 µM |  |  |  |  |  |  |  |  | 
6 | COc1ccc(C2=NN=C3C(c4ccccc4)=Nc4ccccc4N3C2)cc1 | > 100 µM |  | > 100 µM | > 100 µM | > 100 µM | > 100 µM | > 100 µM | > 100 µM | > 100 µM | > 100 µM |  |  |  |  |  |  |  |  | 
7 | O=c1oc2ccccc2c(O)c1C(C/C(CCN1CCCC1)=N\Nc1ccccc1)c1ccccc1 (centres undefined) |  | > 100 µM | > 100 µM | > 100 µM |  | > 100 µM |  | > 100 µM | > 100 µM | > 100 µM |  |  |  |  |  |  |  |  | 
8 | CCOC(=O)[C@@H]1ON2OC(OC3CCCC3(c3ccccc3)c3ccccc3)C(OC(C)=O)[C@H]3OC(=O)[C@@H]1C32 (some centres undefined) | > 100 µM | > 100 µM | > 100 µM | > 100 µM | > 100 µM |  | > 100 µM | > 100 µM | > 100 µM | > 100 µM |  |  |  |  |  |  |  |  | 
9 | C=C(c1ccccc1)c1ccccc1-c1cc(-c2ccccc2)cc(-c2ccccc2)n1 |  | > 100 µM | > 100 µM | > 100 µM | > 100 µM | > 100 µM | > 100 µM | > 100 µM | > 100 µM | > 100 µM |  |  |  |  |  |  |  |  | 
10 | CN1CCN(C2=CC(=O)c3c(O)ccc(O)c3C2=O)CC1 | 3.14 µM | 3.08 µM |  | 2.16 µM | 3.1 µM |  | > 10 µM | 1.89 µM | 4.22 µM | 3.13 µM |  |  |  |  |  |  |  |  | 
11 | CC(=O)c1c2n(n(-c3ccccc3)c1=O)C(=O)c1nccnc1-2 | > 100 µM | > 100 µM | > 100 µM |  | > 100 µM | > 100 µM | > 100 µM | > 100 µM |  | > 100 µM |  |  |  |  |  |  |  |  | 
12 | OC(CC(O)(C(F)(F)F)C(F)(F)F)c1ccc(C(O)CC(O)(C(F)(F)F)C(F)(F)F)cc1 (centres undefined) |  | 27.3 µM | 42.8 µM | 35 µM | 28.7 µM | 31.1 µM | 32.5 µM | 35.8 µM |  | 25.2 µM |  |  |  |  |  |  |  |  | 
13 | COC(=O)c1c(O)ccc2c1c1c(n2Cc2ccccc2)C(=O)c2ccccc2C1 | > 100 µM | 87.2 µM | > 100 µM | > 100 µM | > 100 µM |  | 60.5 µM | > 100 µM | > 100 µM | > 100 µM |  |  |  |  |  |  |  |  | 
14 | CC(C)(C)[Si](C)(C)OCC1OC(n2cnc3c(=O)[nH]c(N)nc32)C(O[Si](C)(C)C(C)(C)C)C1O[Si](C)(C)C(C)(C)C (centres undefined) |  | 52.9 µM | > 100 µM | 7.73 µM | 10.5 µM | 5.79 µM | 9.79 µM | > 20.4 µM | 5.97 µM | 4.3 µM |  |  |  |  |  |  |  |  | 
15 | CC1(C)N=C(c2ccccn2)C(c2ccccn2)=NC1(C)C |  | > 100 µM | > 100 µM |  |  | > 100 µM |  | > 100 µM |  | > 100 µM |  |  |  |  |  |  |  |  | 
16 | CC(=O)OC1COC(Nc2nc(N)n(C)c(=O)c2N=O)C(OC(C)=O)C1OC(C)=O (centres undefined) | > 10 µM | > 10 µM |  | > 10 µM | > 10 µM | > 10 µM | > 10 µM | > 10 µM | > 10 µM | > 10 µM |  |  |  |  |  |  |  |  | 
17 | O=c1[nH]c(=S)c2cc3c(=S)[nH]c(=O)n(CCO)c3nc2n1CCO | > 100 µM | > 100 µM | > 100 µM | > 100 µM | > 100 µM | > 100 µM | > 100 µM | > 100 µM | > 100 µM |  |  |  |  |  |  |  |  |  | 
18 | COc1cc(Br)c(CC2C3=C(CCN2C(=O)C2CCC2)CC(=O)CC3)cc1O (centres undefined) |  |  | 47.5 µM | > 100 µM | > 100 µM | > 100 µM | > 100 µM | > 100 µM | > 100 µM | 36.3 µM |  |  |  |  |  |  |  |  | 
19 | COc1ccc(-c2nn(-c3ccc(NC(=O)Nc4ccc(Cl)c(C(F)(F)F)c4)cc3)cc2-c2ccncc2)cc1Cl |  | 5.18 µM | 3.03 µM | 4.45 µM | 2.67 µM | 5.96 µM | 5.49 µM | 4.4 µM | 5.27 µM | 2.75 µM | 1.78 µM | 1.12 µM | 1.81 µM | 1.2 µM | 1.88 µM | 0.793 µM | 1.93 µM | 1.41 µM | 1.33 µM
20 | C=CCC(C(=O)Nc1cccc2[nH]cnc12)C(=O)OCC (centres undefined) | > 100 µM |  | > 100 µM | > 100 µM | > 100 µM | > 100 µM | > 100 µM | > 100 µM | > 100 µM | > 100 µM |  |  |  |  |  |  |  |  | 
21 | CN1C/C(=C\C=C\c2ccccc2)C(=O)/C(=C/C=C/c2ccccc2)C1 |  | > 100 µM | > 100 µM | > 100 µM |  | > 100 µM |  | > 100 µM | > 100 µM | > 100 µM |  |  |  |  |  |  |  |  | 
22 | O=C1c2ccccc2C(=O)c2[nH]c(Cc3ccc(F)cc3)nc21 |  | 50.2 µM | 21.6 µM | 44.3 µM |  |  |  | 38.3 µM | 53.1 µM | 35.5 µM |  |  |  |  |  |  |  |  | 
23 | O=C1NCCS(=O)(=O)N2CCC[C@@H]12 |  | > 100 µM | > 100 µM | > 100 µM |  | > 100 µM |  | > 100 µM | > 100 µM | > 100 µM |  |  |  |  |  |  |  |  | 
